Experimental data reported in PMC9376960, “Ruthenium(II)–Tris-pyrazolylmethane Complexes Inhibit Cancer Cell Growth by Disrupting Mitochondrial Calcium Homeostasis” (Journal of Medicinal Chemistry, 2022).

How the values were obtained:
[1] = parameters: method as in doi:10.1021/acs.organomet.9b00813; settings: UV-Vis measurements; cited from earlier work
[2] = Solubility in water (D2O) by 1H NMR; format: physicochemical; settings: D2O, 21°C; sum of chloro and aquo complex after 2 h; 1H NMR, Me2SO2 standard
Experimental: A suspension of the selected ruthenium complex (3–5 mg) in a D2O solution (0.7 mL) containing Me2SO2 as the internal standard[115] (3.36 × 10^–3 M) was vigorously stirred at 21 °C for 2 h. The resulting saturated solution was filtered over celite, transferred into an NMR tube, and analyzed by ^1H NMR and ^31P NMR spectroscopy (delay time = 3 s; number of scans = 20). The concentration (solubility) was calculated by the relative integral (starting complex + aquo complex, C^βH signal in the ^1H spectrum) with respect to Me2SO2 (δ/ppm = 3.14). NMR data are given in the Supporting Information (Figures S36–S47).

[3] = Octanol/water partition coefficient, shake-flask, UV-vis; format: physicochemical
Experimental: Partition coefficients (Pow); IUPAC: […] A stock solution of the selected ruthenium compound (ca. 2 mg) was prepared by first adding MeOH (50 μL, to help solubilization), followed by octanol-saturated water (2.5 mL). The solution was diluted with octanol-saturated water (ca. 1:3 v/v ratio, cRu ≈ 10^-4 M, so that 1.5 ≤ A ≤ 2.0 at λmax), and its UV-vis spectrum was recorded (Aaq^0). An aliquot of the solution (Vaq = 1.2 mL) was transferred into a test tube, and water-saturated octanol (Vorg = Vaq = 1.2 mL) was added. […] The UV-vis spectrum of the aqueous phase was recorded (Aaq^f), and the partition coefficient was calculated as Pow = ([…], where […] are the absorbances in the aqueous phase before and after partition with the organic phase, respectively.[118] For 1, an inverse procedure was followed, starting from a solution of the compound in water-saturated octanol. The partition coefficient was calculated as Pow = Aorg^f/(Aorg^0 - Aorg^f), where Aorg^0 and Aorg^f are the absorbances in the organic phase before and after partition with the aqueous phase, respectively. The wavelength of the maximum absorption of each compound (280-380 nm range) was used for UV-vis quantitation. The procedure was repeated three times for each sample (from the same stock solution); the results are given as mean ± standard deviation (Table 2).

[4] = Stability and chloride/water exchange in D2O (NMR); format: physicochemical; settings: for Aquo species % in D2O after 48h: 48 h at 37 °C; for residual complex % in D2O: after 48 h at 37 °C, sum of chloro and aquo complexes; for Aquo species % in D2O at t0: t0 = after 2 h stirring in D2O
Experimental: The same samples prepared at point (a) were used in this experiment, apart from complex 1 that was dissolved in DMSO-d6/D2O 4:1 v/v solution (0.7 mL; [Ru] = approx. […]) containing Me2SO2 as the standard.[115] After ^1H and ^31P{^1H} NMR analyses described above at point (a) (time = t0), samples were heated at 37 °C for 48 h. After cooling to room temperature, ^1H and ^31P NMR spectra were recorded. The percentage of starting complex + related aquo complex was calculated by the relative integral (C^βH signal in the ^1H spectrum) with respect to Me2SO2 (c = 3.3 × 10^–3 mol·L^–1; δ/ppm = 3.14 in D2O; δ/ppm = 2.95 in DMSO-d6/D2O 4:1 v/v), see Table 2 and S1.

[5] = Stability and speciation in deuterated cell culture medium (DMEM-d/DMSO-d6, NMR); format: physicochemical; settings: for Aquo species % in DMEM-d/DMSO-d6 after 24h: 37 °C; for residual complex % in DMEM-d/DMSO-d6: after 24 h at 37 °C, sum of chloro and aquo complexes
Experimental: Powdered DMEM cell culture medium (1000 mg/L glucose and L-glutamine, without sodium bicarbonate and phenol red; D2902; Sigma-Aldrich) was dissolved in D2O (10 mg/mL), according to the manufacturer’s instructions. The solution of deuterated cell culture medium (“DMEM-d”) was treated with Me2SO2 (6.6 × 10^–3 M) and NaH2PO4/Na2HPO4 (0.10 M, pD = 7.5)[120]−[122] and then stored at 4 °C under N2. The selected ruthenium compound (2–3 mg) was dissolved in DMSO-d6 (0.14 mL; 0.18 mL for 4) and then diluted with DMEM-d up to 0.75 mL total volume (cRu ca. 4 × 10^–3 M). The mixture was stirred for 30 min, then filtered over celite, and transferred into an NMR tube. The resulting yellow solution was analyzed by ^1H and ^31P NMR (delay time = 3 s; number of scans = 20) and then heated at 37 °C for 24 h. After cooling to room temperature, NMR analyses were repeated. Compound 1 was instead dissolved in a DMSO-d6/DMEM-d 4:1 v/v solution (0.7 mL; [Ru] = approx. 3 × 10^–3 M) containing Me2SO2 as the internal standard.[115] The percentage of the starting complex + related aquo complex was calculated by the relative integral with respect to Me2SO2 (δ/ppm = 3.16 in DMSO-d6/DMEM-d 1:4 and 1:3 v/v; δ/ppm = 2.95 in DMSO-d6/DMEM-d 4:1 v/v).

518A2 = assay: MTT antiproliferative assay; format: cell-based, human; settings: 72 h, mean ± SD
Experimental: (§1) All of the cell lines were cultivated in DMEM medium (high glucose 4.5 g L^–1, PAA, Pasching, Austria) supplemented with gentamycin (50 μg mL^–1, Serva, Heidelberg, Germany) and 10% heat-inactivated fetal bovine serum (PAA). The medium for MRC5pd30 cells was further supplemented by 1% nonessential amino acids (Sigma-Aldrich, Prague, Czech Republic). All cells were cultured as adherent monolayers in a humidified incubator at 37 °C in a 5% CO2 atmosphere and subcultured twice a week with an appropriate plating density.
(§2) In vitro antiproliferative activity of Ru complexes was determined by the MTT or, alternatively, SRB assay as already described,[84] after 72 h of incubation of cells with various concentrations of the Ru complex. The reported IC50 values are an average of three independent experiments, each consisting of three replicates per concentration.

HCT116 [6] = assay: MTT antiproliferative assay; format: cell-based, human; settings: 72 h, mean ± SD
Experimental: as §1, §2

HeLa = assay: MTT antiproliferative assay; format: cell-based, human; settings: 72 h, mean ± SD
Experimental: as §1, §2

MCF-7 = assay: MTT antiproliferative assay; format: cell-based, human; settings: 72 h, mean ± SD
Experimental: as §1, §2

RD = assay: MTT antiproliferative assay; format: cell-based, human; settings: 72 h, mean ± SD
Experimental: as §1, with “density. In vitro antiproliferative activity of Ru complexes was determined by the MTT or, alternatively, SRB assay as already described,[84] after 72 h of incubation of cells with various concentrations of the Ru complex. The reported IC50 values are an average of three independent experiments, each consisting of three replicates per concentration.” for “density.”

MRC5pd30 = assay: MTT assay on noncancerous cells; format: cell-based, human; settings: 72 h, mean ± SD
Experimental: as §1, §2

[7] = system: cancer cell lines (MCF-7, HeLa, 518A2, HCT116, RD) vs noncancerous MRC-5pd30; assay: MTT panel: average IC50 of cancer cell lines and selectivity index; format: cell-based, human; settings: for SI (selectivity index): IC50 for noncancerous MRC-5pd30 vs the average IC50 value of cancer cell lines; for IC50: average of IC50 values related to cancer cell lines
Experimental: as §2

HCT116 [8] = assay: SRB antiproliferative assay; format: cell-based, human; settings: SRB test, 72 h; mean ± SD
Experimental: as §2

HCT116 cells = assay: Cellular uptake of Ru (ICP-MS); format: cell-based, human; settings: HCT116, 15 μM, 24 h; mean ± SEM
Experimental: In these experiments, 1 × 10^6 HCT116 cells were seeded on 100 mm Petri dishes. After overnight preincubation in a drug-free medium, the cells were treated with the Ru complexes (15 μM) for 24 h. Afterward, the cells were extensively washed with PBS (37 °C), detached using 0.25% trypsin, washed twice with ice-cold PBS, and counted by an automatic cell counter. The cell pellets were digested using a microwave acid (HCl) digestion system (CEM Mars). The quantity of Ru taken up by the cells was determined by inductively coupled plasma mass spectrometry (ICP-MS). All experiments were carried out in triplicate.

Row | Substance | solubility [2] | log Pow [3] | Aquo species % in D2O after 48h [4] [%] | residual complex % in D2O [4] [%] | Aquo species % in D2O at t0 [4] [%] | Aquo species % in DMEM-d/DMSO-d6 at t0 ([5]; DMSO-d6-DMEM-d 1:4 v/v) [%] | Aquo species % in DMEM-d/DMSO-d6 after 24h ([5]; DMSO-d6-DMEM-d 1:4 v/v) [%] | residual complex % in DMEM-d/DMSO-d6 ([5]; DMSO-d6/DMEM-d 1:4 v/v) [%] | IC50 (HCT116 [6]) [µM] | IC50 (HeLa) [µM] | IC50 (MCF-7) [µM] | IC50 (HCT116 [8]) [µM] | Accumulation of ruthenium, ng Ru/10^6 cells (HCT116 cells) [ng Ru/10^6 cells] | IC50 (518A2) [µM] | IC50 (RD) [µM] | IC50 (MRC5pd30) [µM] | SI (selectivity index) [7] | IC50 [7] [µM] | further results
1 | [Fe2Cp2(CO)(μ-CO){μ-η^1:η^3-C(3-C6H4OH)CHCNMe2}]CF3SO3 [[FeFe]^+[CF3SO3]^–] |  |  |  |  |  |  |  |  |  |  |  |  |  |  |  |  |  |  | LogPow [1]: −0.34
2 | [RuCl(κ^3-tpm)(PPh3){N(CH)3C(OH)CH}]Cl [compound 6] | 1.9 10^–3 mol·L^–1 |  | 99 | 100 | 15 | 9 | 70 | 100 | 31 ± 2 | 54 ± 14 | 46 ± 7 | 20 ± 2 | 27.2 ± 1.1 | 38 ± 8 | 38 ± 6 | 82 ± 4 | 2.0 | 41.4 ± 7.4 | 
3 | [RuCl(κ^3-tpm)(PPh3){NNH(CH)3}]Cl [compound 5] | 3.4 10^–3 mol·L^–1 | –0.05 ± 0.05 | 88 | 100 | 25 | 0 | 50 | 98 | 30 ± 2 | 54 ± 6 | 32 ± 5 | 20 ± 3 | 58.4 ± 3.0 | 31 ± 3 | 23 ± 2 | 63 ± 4 | 1.9 | 34 ± 3.6 | 

Now from value to substance, other results behind:

Row | solubility [2] | log Pow [3] | Aquo species % in D2O after 48h [4] [%] | residual complex % in D2O [4] [%] | Aquo species % in D2O at t0 [4] [%] | Aquo species % in DMEM-d/DMSO-d6 at t0 ([5]; DMSO-d6-DMEM-d 1:4 v/v) [%] | Aquo species % in DMEM-d/DMSO-d6 after 24h ([5]; DMSO-d6-DMEM-d 1:4 v/v) [%] | residual complex % in DMEM-d/DMSO-d6 ([5]; DMSO-d6/DMEM-d 1:4 v/v) [%] | IC50 (HCT116 [6]) [µM] | IC50 (HeLa) [µM] | IC50 (MCF-7) [µM] | IC50 (HCT116 [8]) [µM] | Accumulation of ruthenium, ng Ru/10^6 cells (HCT116 cells) [ng Ru/10^6 cells] | Substance | IC50 (518A2) [µM] | IC50 (RD) [µM] | IC50 (MRC5pd30) [µM] | SI (selectivity index) [7] | IC50 [7] [µM] | further results
4 | 4.5 10^–3 mol·L^–1 | –0.33 ± 0.07 | 92 | 89 | 80 | 0 | 59 | 51 | 25 ± 2 | 53 ± 4 | 32 ± 4 | 16 ± 1 | 29.6 ± 2.9 | [RuCl(κ^3-tpm)(PPh3)(NCMe)]Cl [compound 2] | 26 ± 4 | 26 ± 5 | 76 ± 1 | 2.4 | 32.4 ± 3.8 | 
5 | 2.4 10^–3 mol·L^–1 | 0.58 ± 0.06 | 70 | 100 | 67 |  |  |  | 25 ± 2 | 36 ± 1 | 37 ± 7 | 21 ± 3 | 54.9 ± 1.3 | [RuCl(κ^3-tpm)(PPh3){NCHNHC(CH)4C}]Cl [compound 4] | 35 ± 4 | 25 ± 3 | 56.6 ± 0.7 | 1.8 | 31.6 ± 3.4 | Aquo species % in DMEM-d/DMSO-d6 at t0 ([5]; DMSO-d6-DMEM-d 1:3 v/v): 0%; Aquo species % in DMEM-d/DMSO-d6 after 24h ([5]; DMSO-d6-DMEM-d 1:3 v/v): 59%; residual complex % in DMEM-d/DMSO-d6 ([5]; DMSO-d6/DMEM-d 1:3 v/v): 93%
